Results: patent US7511144B2, “Reverse hydroxamic acid derivatives” (Kaken Pharmaceutical Co., Ltd., priority 2001, dated 2009)
Like-named read-outs stand apart in the source and are kept apart here.

Experiments:
Type in all cases: biochemical
TACE = target: T1, TACE (Homo sapiens, UniProt P78536); experiment: TACE inhibition experiment (in vitro)
T1 construct: made in house; host or cells: mammalian cells or insect cells

Human MMP1 = target: T2, Human MMP1 (Homo sapiens, UniProt P03956); experiment: MMP1 inhibition experiment; conditions: read-out: IC50 value MMP-1
T2 construct: purchased Calbiochem 444208
T2 sequence (P03956 100-469): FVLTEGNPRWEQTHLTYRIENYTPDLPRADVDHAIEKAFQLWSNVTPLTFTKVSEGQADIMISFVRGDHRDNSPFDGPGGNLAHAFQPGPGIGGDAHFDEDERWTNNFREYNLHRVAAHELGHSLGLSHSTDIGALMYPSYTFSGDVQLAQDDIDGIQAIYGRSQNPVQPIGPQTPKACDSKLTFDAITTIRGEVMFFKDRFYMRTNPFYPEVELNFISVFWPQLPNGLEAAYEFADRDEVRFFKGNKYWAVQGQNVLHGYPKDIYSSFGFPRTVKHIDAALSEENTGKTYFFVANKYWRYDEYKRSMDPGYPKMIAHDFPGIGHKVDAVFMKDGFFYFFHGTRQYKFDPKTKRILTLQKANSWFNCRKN

Human MMP2 = target: T3, Human MMP2 (Homo sapiens, UniProt P08253); experiment: MMP2 inhibition experiment; conditions: concentration required for 50% inhibition of enzyme activity; read-out: IC50 value MMP-2
T3 construct: purchased Calbiochem 444213
T3 sequence (P08253 110-660): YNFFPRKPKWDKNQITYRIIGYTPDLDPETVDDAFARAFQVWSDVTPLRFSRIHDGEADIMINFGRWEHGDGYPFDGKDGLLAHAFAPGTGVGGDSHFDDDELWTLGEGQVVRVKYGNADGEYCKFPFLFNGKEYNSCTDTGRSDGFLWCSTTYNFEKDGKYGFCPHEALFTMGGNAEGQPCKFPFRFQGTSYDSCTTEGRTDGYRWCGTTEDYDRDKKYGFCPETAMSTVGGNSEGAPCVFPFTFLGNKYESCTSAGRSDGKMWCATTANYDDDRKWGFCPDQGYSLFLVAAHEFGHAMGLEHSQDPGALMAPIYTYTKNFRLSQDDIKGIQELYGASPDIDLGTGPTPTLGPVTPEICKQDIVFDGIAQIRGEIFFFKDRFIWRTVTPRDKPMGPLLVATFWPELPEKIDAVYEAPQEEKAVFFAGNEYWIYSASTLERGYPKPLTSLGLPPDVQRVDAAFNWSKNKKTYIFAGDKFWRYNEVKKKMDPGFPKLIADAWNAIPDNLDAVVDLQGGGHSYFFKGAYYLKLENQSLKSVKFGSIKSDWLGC

Human MMP3 = target: T4, Human MMP3 (Homo sapiens, UniProt P08254); experiment: MMP3 inhibition experiment; conditions: concentration required for 50% inhibition of enzyme activity; read-out: IC50 value MMP-3
T4 construct: purchased Calbiochem 444217
Method in brief: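 Fluorescence-quenched substrate NFF-3 (MOCAc/Dnp peptide, 20 μM as prepared) cleaved by 5 ng human MMP3 over 5 hours at 37° C, with inhibition measured from substrate fluorescence.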

Human MMP8 = target: T5, Human MMP8 (Homo sapiens, UniProt P22894); experiment: MMP8 inhibition experiment; conditions: concentration required for 50% inhibition of enzyme activity; read-out: IC50 value MMP-8
T5 construct: purchased Calbiochem 444229
Experimental: MMP inhibition experiment may be carried out using a fluorescent synthetic substrate according to, for example, the methods of Bickett et al. (D. Mark Bickett et al., Anal. Biochem., 1993, 212, 58-64) and Nagase et al. (H. Nagase et al., J. Biol. Chem., 1994, 269, 20952-20957). The methods of inhibition experiments carried out for various MMPs are described below.
Human MMP8 (Calbiochem #444229) in amount of 90 μL (30 ng) was activated by mixing with 10 μL of 10 mM APMA, followed by reaction for 1 hour at 37° C. This enzyme solution in amount of 10 μL was diluted to 90 μL with the assay buffer A, which was added to 90 μL of […] fluorescent substrate (MOCAc-Pro-Leu-Gly-Leu-A2pr(Dnp)-Ala-Arg-NH2, Peptide Institute, Inc., #3163-v) prepared in the assay buffer B, followed by reaction for 5 hours at 37° C.

Human MMP9 = target: T6, Human MMP9 (Homo sapiens, UniProt P14780); experiment: MMP9 inhibition experiment; conditions: read-out: IC50 value MMP-9
T6 construct: purchased Calbiochem 444231

Human MMP13 = target: T7, Human MMP13 (Homo sapiens, UniProt P45452); experiment: MMP13 inhibition experiment; conditions: concentration required for 50% inhibition of enzyme activity; read-out: IC50 value MMP-13
T7 construct: purchased Chemicon CC068

Human MMP14 = target: T8, Human MMP14 (Homo sapiens, UniProt P50281); experiment: MMP14 inhibition experiment; conditions: concentration required for 50% inhibition of enzyme activity; read-out: IC50 value MMP-14
T8 construct: purchased Biogenesis or Calbiochem 5980-1461 or 475935
Method in brief: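 Fluorescence assay: substrate Dnp-Pro-Cha-Gly-Cys(Me)-His-Ala-Lys(Nma)-NH2 (20 μM before equal-volume mixing) incubated at 37° C for 5 hours with 4 ng human MMP14.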

Human MMP17 = target: T9, Human MMP17 (Homo sapiens, UniProt Q9ULZ9); experiment: MMP17 inhibition test; conditions: concentration required for 50% inhibition of enzyme activity; read-out: IC50 value MMP-17
T9 construct: purchased Calbiochem 475940
T9 sequence (Q9ULZ9 126-300 limits assumed): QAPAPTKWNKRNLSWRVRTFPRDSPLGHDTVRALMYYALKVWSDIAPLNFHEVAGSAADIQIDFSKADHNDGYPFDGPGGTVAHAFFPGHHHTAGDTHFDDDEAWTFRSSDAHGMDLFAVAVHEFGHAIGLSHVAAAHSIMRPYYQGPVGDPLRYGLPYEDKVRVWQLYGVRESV

[1] = concentration required for 50% inhibition of enzyme activity

T4 sequence (P08254 100-272 limits assumed): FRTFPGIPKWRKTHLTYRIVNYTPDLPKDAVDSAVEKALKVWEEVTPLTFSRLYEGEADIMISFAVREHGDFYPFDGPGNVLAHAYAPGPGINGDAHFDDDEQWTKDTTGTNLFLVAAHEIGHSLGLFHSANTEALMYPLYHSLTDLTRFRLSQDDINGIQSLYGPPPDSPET
T1 sequence (P78536 215-824): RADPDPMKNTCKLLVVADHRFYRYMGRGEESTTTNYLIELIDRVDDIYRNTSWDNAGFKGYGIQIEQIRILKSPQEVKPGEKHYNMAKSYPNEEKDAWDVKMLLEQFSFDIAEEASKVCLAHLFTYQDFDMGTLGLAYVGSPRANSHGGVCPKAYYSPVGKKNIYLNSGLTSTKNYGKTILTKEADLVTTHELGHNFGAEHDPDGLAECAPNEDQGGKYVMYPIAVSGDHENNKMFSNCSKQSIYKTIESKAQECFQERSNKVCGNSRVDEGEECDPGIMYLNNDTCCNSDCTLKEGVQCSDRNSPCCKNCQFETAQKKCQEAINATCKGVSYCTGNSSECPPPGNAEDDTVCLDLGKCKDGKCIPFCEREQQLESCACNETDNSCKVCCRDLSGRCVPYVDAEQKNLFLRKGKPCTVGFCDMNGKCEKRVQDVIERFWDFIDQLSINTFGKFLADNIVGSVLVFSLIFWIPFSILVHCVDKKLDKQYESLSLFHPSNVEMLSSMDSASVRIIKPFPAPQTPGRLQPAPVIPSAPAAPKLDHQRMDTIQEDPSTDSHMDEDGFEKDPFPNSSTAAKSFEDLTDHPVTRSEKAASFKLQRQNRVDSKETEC
T6 sequence (P14780 107-707 limits assumed): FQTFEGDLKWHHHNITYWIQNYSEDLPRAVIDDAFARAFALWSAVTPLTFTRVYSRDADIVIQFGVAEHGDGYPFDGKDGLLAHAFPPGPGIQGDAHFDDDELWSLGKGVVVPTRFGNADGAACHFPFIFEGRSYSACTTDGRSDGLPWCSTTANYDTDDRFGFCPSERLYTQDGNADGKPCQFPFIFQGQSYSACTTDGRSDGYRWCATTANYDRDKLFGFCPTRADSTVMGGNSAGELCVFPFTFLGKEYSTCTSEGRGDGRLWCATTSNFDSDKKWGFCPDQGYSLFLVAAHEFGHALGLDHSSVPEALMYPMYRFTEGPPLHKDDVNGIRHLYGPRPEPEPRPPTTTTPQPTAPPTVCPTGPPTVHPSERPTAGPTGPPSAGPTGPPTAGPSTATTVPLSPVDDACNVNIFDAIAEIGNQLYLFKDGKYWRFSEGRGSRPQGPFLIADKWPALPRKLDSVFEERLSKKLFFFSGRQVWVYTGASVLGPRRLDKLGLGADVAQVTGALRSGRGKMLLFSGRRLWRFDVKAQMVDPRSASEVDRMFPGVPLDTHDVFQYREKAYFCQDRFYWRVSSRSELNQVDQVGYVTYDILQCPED
T5 sequence (P22894 101-467): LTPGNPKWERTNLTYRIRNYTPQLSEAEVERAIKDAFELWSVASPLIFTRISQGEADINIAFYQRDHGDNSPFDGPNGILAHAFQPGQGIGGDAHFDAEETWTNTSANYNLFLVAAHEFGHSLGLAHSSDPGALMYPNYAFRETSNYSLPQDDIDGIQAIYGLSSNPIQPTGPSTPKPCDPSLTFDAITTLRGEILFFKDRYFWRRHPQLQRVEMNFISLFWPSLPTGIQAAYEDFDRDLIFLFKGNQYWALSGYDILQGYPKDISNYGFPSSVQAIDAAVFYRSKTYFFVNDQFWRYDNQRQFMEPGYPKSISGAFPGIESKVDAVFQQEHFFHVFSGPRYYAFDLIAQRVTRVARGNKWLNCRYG

IC50 (TACE; [1]) [µM] | IC50 (Human MMP1) [µM] | IC50 (Human MMP2) [µM] | IC50 (Human MMP3) [µM] | IC50 (Human MMP8) [µM] | IC50 (Human MMP9; [1]) [µM] | IC50 (Human MMP13) [µM] | IC50 (Human MMP14) [µM] | IC50 (Human MMP17) [µM] | IC50 (TACE) [µM] | IC50 (Human MMP9) [µM] | Structure (SMILES)
0.015 | 65 | 7 | 0.28 | 9 | 40 | 3.3 | 30 | 0.22 | – | – | Cc1cc(COc2ccc(S(=O)(=O)CC(C3CCC4(CC3)OCCO4)N(O)C=O)cc2)c2ccccc2n1 (stereo not drawn) [Example I-28, N-{1-(1,4-dioxaspiro[4.5]dec-8-yl)-2-[4-(2-methylquinolin-4-ylmethoxy)benzenesulfonyl]ethyl}-N-hydroxyformamide]
– | > 100 | 19 | 1.8 | 19 | – | 18 | 90 | 0.96 | 0.0076 | > 100 | Cc1cc(COc2ccc(S(=O)(=O)CC(CC3CCOCC3)N(O)C=O)cc2)c2ccccc2n1 (stereo not drawn) [Example I-29]
– | > 100 | 83 | 24 | > 100 | – | > 100 | > 100 | 8 | 0.012 | > 100 | CCN1CCC(=CC(CS(=O)(=O)c2ccc(OCc3cc(C)nc4ccccc34)cc2)N(O)C=O)CC1 (stereo not drawn) [Example I-30]
– | > 100 | 50 | 3.2 | 62 | – | 26 | 90 | 1.8 | 0.0028 | > 100 | Cc1cncc(C(CS(=O)(=O)c2ccc(OCc3cc(C)nc4ccccc34)cc2)N(O)C=O)c1 (stereo not drawn) [Example I-31]
– | > 100 | 18 | 2.7 | 22 | – | 9 | 53 | 1.5 | 0.0025 | 44 | Cc1ccc(C(CS(=O)(=O)c2ccc(OCc3cc(C)nc4ccccc34)cc2)N(O)C=O)cn1 (stereo not drawn) [Example I-32]
– | 50 | 4.2 | 10 | 35 | – | 7.8 | 38 | 6 | 0.032 | 37 | COc1ccc(CCC(CS(=O)(=O)c2ccc(OCc3cc(C)nc4ccccc34)cc2)N(O)C=O)cc1 (stereo not drawn) [Example I-35]
– | 70 | 6 | 9.7 | 68 | – | 20 | 37 | 20 | 0.17 | 43 | Cc1ccc(CCC(CS(=O)(=O)c2ccc(OCc3cc(C)nc4ccccc34)cc2)N(O)C=O)cc1 (stereo not drawn) [Example I-36]
– | 57 | 2.7 | 2 | 25 | – | 6 | 33 | 1.1 | 0.17 | 22 | Cc1ccc(CCCC(CS(=O)(=O)c2ccc(OCc3cc(C)nc4ccccc34)cc2)N(O)C=O)cc1 (stereo not drawn) [Example I-37]
– | 57 | 12 | 2 | 46 | – | 22 | 50 | 2.2 | 0.012 | 54 | Cc1cc(COc2ccc(S(=O)(=O)CC(CCC3=CCCC(OC=O)C3)N(O)C=O)cc2)c2ccccc2n1 (stereo not drawn) [Example I-38]
– | 73 | 30 | 24 | > 100 | – | 26 | 43 | 25 | 0.21 | 36 | Cc1cccc(CCC(CS(=O)(=O)c2ccc(OCc3cc(C)nc4ccccc34)cc2)N(O)C=O)c1 (stereo not drawn) [Example I-39]
– | > 100 | 41 | 4.8 | 50 | – | 50 | > 100 | 3.7 | 0.0031 | > 100 | CC(=O)N1CCC(=CC(CS(=O)(=O)c2ccc(OCc3cc(C)nc4ccccc34)cc2)N(O)C=O)CC1 (stereo not drawn) [Example I-41]
– | 70 | 18 | 2.2 | 61 | – | 20 | 38 | 2.3 | 0.0029 | 52 | CCC(CC)C(=O)N1CCC(=CC(CS(=O)(=O)c2ccc(OCc3cc(C)nc4ccccc34)cc2)N(O)C=O)CC1 (stereo not drawn) [Example I-42]
– | > 100 | 50 | 11 | 52 | – | 65 | > 100 | 4.5 | 0.0031 | > 100 | Cc1cc(COc2ccc(S(=O)(=O)CC(C=C3CCN(C=O)CC3)N(O)C=O)cc2)c2ccccc2n1 (stereo not drawn) [Example I-43]
– | > 100 | 6.5 | 3 | 42 | – | 20 | 60 | 1.1 | 0.0078 | > 100 | CCC(CC)CN1CCC(=CC(CS(=O)(=O)c2ccc(OCc3cc(C)nc4ccccc34)cc2)N(O)C=O)CC1 (stereo not drawn) [Example I-44]
– | 85 | 1 | 0.26 | 5 | – | 2 | 9 | 0.27 | 0.005 | 40 | Cc1cc(COc2ccc(S(=O)(=O)CC(C=C3CCN(Cc4ccccc4)CC3)N(O)C=O)cc2)c2ccccc2n1 (stereo not drawn) [Example I-45]
– | > 100 | 22 | 0.6 | 15 | – | 18 | 60 | 0.4 | 0.03 | > 100 | Cc1cc(COc2ccc(S(=O)(=O)CC(N(O)C=O)C3(C)CCC4(CC3)OCCO4)cc2)c2ccccc2n1 (stereo not drawn) [Example I-47]
– | > 100 | 70 | 2.8 | 18 | – | 50 | > 100 | 1 | 0.019 | > 100 | Cc1cc(COc2ccc(S(=O)(=O)CC(N(O)C=O)C3(C)CCC(=O)CC3)cc2)c2ccccc2n1 (stereo not drawn) [Example I-48]
– | > 100 | 24 | 2 | 9 | – | 30 | 90 | 0.61 | 0.013 | > 100 | Cc1cc(COc2ccc(S(=O)(=O)CC(C3CCOCC3)N(O)C=O)cc2)c2ccccc2n1 (stereo not drawn) [Example I-49]
